As a reminder, the IC50 is the concentration needed to halve the response being measured. Higher therefore signals a need for much substance.

Data set [1] deals with Pt2377 cells. The data set is described as follows: Cell proliferation inhibition assay, Pt2377. The format is cell-based. The conditions noted are these: 120 h; 5 days, viable cells counted. The protocol: (§1) Cell proliferation inhibition assay-Cell proliferation inhibition assay was performed as previously reported (48). All compounds to be tested were dissolved at 10 mM in DMSO. The cells were seeded into 12-well plates at a density of 40,000 cells per well in 1 mL of culture medium and were cultured overnight at 37° C. Either 1 μL of the compounds or the vehicle control (DMSO) was added to the cells. After 5 days, the medium was removed, and 200 μL of 0.25% trypsin was added. The cells were resuspended in 800 μL phosphate-buffered saline (PBS) and counted with Vi-CELL XR 2.03 (Beckman Coulter, Inc. USA). The ratio R of the number of viable cells in the compound-treated group to the number of viable cells in the DMSO-treated group was called relative growth rate, and the growth inhibition was calculated as (1−R)*100.

The test system of data set [2] is OCV-8 Cell. The data set is described as follows: OCV-8 cell inhibition. The format is cell-based. The following applies: read-out: OCV-8 Cell Inhibiton; for inhibition at 0.3 µM: 300 nM.
Data set [3] concerns LS174T xenografts. The data set is described as follows: LS174T xenografts in SCID mice. The class given is in vivo, mouse. The following applies: BAY-876 3 mg/kg/day, DBI-1 40 mg/kg/day. As to the method:
In vivo evaluation of anti-cancer activity in LS174T xenografts—The mouse studies were conducted with the approval of the University of Kentucky Institutional Animal Care and Use Committee (2020-3531). All methods were carried out in compliance with the relevant guidelines and regulations according to protocols. The LS174T cells in exponential growth phase were trypsinized and resuspended in 50% Matrigel (Corning, Glendale, Arizona). Cells (1.2×10^6) were subcutaneously injected on the lower flanks of severe combined immunodeficient mice. The tumor volumes were calculated based on the formula Length×width^2/2. When tumors reached an average volume of 100 mm^3, the mice were divided into control and treatment groups (3 male and 3 female mice/group, two tumors on each mouse). After tumors were established, BAY-876 was given to the mice by gavage feeding to the BAY-876 group at the dose of 3 mg/kg/day. DBI-1 was daily intraperitoneally (i.p.) administered to the DBI-1 group at dose of 40 mg/kg mouse body weight. Mice in the combination treatment group were administered both oral BAY-876 at the dose of 3 mg/kg/day and i.p. DBI-1 at dose of 40 mg/kg mouse body weight. Tumors and mouse weights were measured every three days and the experiment was stopped at day 12. Tumors were isolated and fixed in 10% neutral buffered formalin. Tumor sections were analyzed with H&E and Ki-67 staining at Markey Cancer Center's Biospecimen Procurement and Translational Pathology Shared Resource Facility (BPTP SRF).

In data set [4] the test system is HCT116 cells. The data set is described as follows: Cell proliferation inhibition assay, HCT116. The class given is cell-based. The following applies: for inhibition at 1 µM / inhibition at 3 µM / inhibition at 10 µM: Homo sapiens; for inhibition at 1 µM: HCT-116, 1 μM; for inhibition at 3 µM: HCT-116, 3 μM; for inhibition at 10 µM: HCT-116, 10 μM. As to the method: as §1
(§2) Cell proliferation inhibition assay was conducted according to a previous report (48). The cells were split into 12-well plates at a density of 40,000 cells per well in 1 mL of culture medium and were cultured overnight at 37° C. Either 1 μL of the compounds dissolved at 10 mmol/L in DMSO or the vehicle control (DMSO) was added to the cells. After 5 days, removed the medium, and 200 μL of 0.25% trypsin was added. The cells were resuspended in phosphate-buffered saline (PBS) and counted with Vi-CELL XR 2.03 (Beckman Coulter, Inc. USA). The ratio R of the number of viable cells in the compound treatment group to the number of viable cells in the DMSO treatment group was defined as the relative growth rate, and the growth inhibition rate was calculated as (1−R)*100.

The subject of data set [5] is LS174T cells. The data set is described as follows: Cell proliferation inhibition assay, LS174T. The class given is cell-based. The following applies: for combinational effect with BAY-876 on proliferation of LS174T cells: in combination with BAY-876. The protocol:
as §1, §2

For data set [6] the following is noted: cited from earlier work.

For `CN(C)CCN(C)CCCCOc1ccc2c(=O)c(-c3ccc(Br)cc3)coc2c1` [DBI-1, 3-(4-Bromophenyl)-7-(4-((2-(dimethylamino)ethyl)(methyl)amino)butoxy)-4H-chromen-4-one], the 50% inhibitory concentration (IC50) in data set [1] amounted to 1400 nM; in data set [5] (Homo sapiens, LS174T, 120 h, 5 days, viable cells counted), 1200 nM. In addition, in data set [2], the inhibition at 0.3 µM turned out to be 57%. The results for the inhibition at 1 µM in data set [2] and in data set [4] were 96% and 45%, respectively. Further, in data set [3], the “toxicity based on mice body weight growth rate” value is listed as “No significant toxicity”.
Consider `Cc1nc(-c2nc(-c3ccc(OC(F)(F)F)cc3)no2)nn1Cc1cccc(N2CCC(S(C)(=O)=O)CC2)c1` [IACS-010759], for which, in data set [6] (25 mg/kg/day), the “tolerability in preclinical models” value was “not tolerated”. Also, the “antitumor effect in preclinical models” value in data set [6] (5-10 mg/kg/day) is given as “tumor regression”.
`CN(C)C(=N)N=C(N)N` [Metformin]: the “combinational effect with BAY-876 on proliferation of LS174T cells” value in data set [5] is listed as “synergistical effects with BAY-876”.
As for `C=C(C)[C@H]1Cc2c(ccc3c2O[C@@H]2COc4cc(OC)c(OC)cc4[C@@H]2C3=O)O1` [Rotenone], the “combinational effect with BAY-876 on proliferation of LS174T cells” value in data set [5] is recorded as “synergistical effects with BAY-876”.
With `O=c1c(-c2ccc(F)cc2)coc2cc(OCCN3CCNCC3)ccc12` [WZY-1-31], in data set [4], the inhibition at 3 µM amounted to 0% and the inhibition at 10 µM worked out at 89%.
The like results for `O=c1c(-c2ccc(F)cc2)coc2cc(OCCN3CCN(CCO)CC3)ccc12` [WZY-1-33] were, in that order, 0% and 35%.
Consider `O=c1c(-c2ccc(Cl)cc2)coc2cc(OCCN3CCNCC3)ccc12` [WZY-1-43], for which, in data set [2], the inhibition at 0.3 µM was determined as 31% and the inhibition at 1 µM is 97%. In data set [4], the inhibition at 3 µM came out at 92% and the inhibition at 10 µM was 93%.
Taken in the same sequence, the figures for `O=c1c(-c2ccc(Br)cc2)coc2cc(OCCN3CCNCC3)ccc12` [WZY-1-45] were 43%, 97%, 94% and 93%.
In data set [4], `O=c1c(-c2ccc(Cl)cc2)coc2cc(OCCN3CCN(CCO)CC3)ccc12` [WZY-1-47] came in with an inhibition at 3 µM of 50% and an inhibition at 10 µM of 94%.
Taken in the same sequence, the figures for `O=c1c(-c2ccc(Br)cc2)coc2cc(OCCN3CCN(CCO)CC3)ccc12` [WZY-1-49] were 80% and 94%.
Taken in the same sequence, the figures for `COc1ccc(-c2coc3cc(OCCN4CCNCC4)ccc3c2=O)cc1` [WZY-1-59] were 0% and 92%.
In data set [4], `COc1ccc(-c2coc3cc(OCCN4CCN(CCO)CC4)ccc3c2=O)cc1` [WZY-1-61] returned an inhibition at 3 µM of 0% and an inhibition at 10 µM of 52%.
In data set [4], `O=c1c(-c2ccccc2F)coc2cc(OCCN3CCN(CCO)CC3)ccc12` [WZY-1-67] showed an inhibition at 3 µM of 0% and an inhibition at 10 µM of 0%.
`O=c1c(-c2ccc(Br)cc2)coc2cc(OCCN3CCOCC3)ccc12` [WZY-1-77]: the inhibition at 3 µM in data set [4] was 61.4%.
Regarding `O=c1c(-c2ccc(Br)cc2)coc2cc(OCCCCN3CCNCC3)ccc12` [WZY-1-91], in data set [2], the inhibition at 0.3 µM was found to be 34% and the inhibition at 1 µM worked out at 94%. This compound returned an inhibition at 3 µM in data set [4] of 99.9%.
Take `O=c1c(-c2ccc(Br)cc2)coc2cc(OCCCCN3CCN(CCO)CC3)ccc12` [WZY-1-95]: in data set [2], the inhibition at 0.3 µM was 30% and the inhibition at 1 µM was determined as 93%. Besides, the inhibition at 3 µM in data set [4] came out at 99%.
In the case of `O=c1c(-c2ccc(Br)cc2)coc2cc(OCCCCCCCCN3CCN(CCO)CC3)ccc12` [WZY-1-97], in data set [2], the inhibition at 0.3 µM was 39% and the inhibition at 1 µM was 96%. The inhibition at 3 µM in data set [4] turned out to be 99.7%.
`O=c1c(-c2ccc(Br)cc2)coc2cc(OCCCCCCCCN3CCOCC3)ccc12` [WZY-1-101] had an inhibition at 3 µM in data set [4] of 50.6%.
On the same count and under the same terms, next, `O=c1c(-c2ccc(Br)cc2)coc2cc(OCCCCCCCCN3CCSCC3)ccc12` [WZY-1-103]: 42.6%.
On the same count and under the same terms, next, `O=c1c(-c2ccc(Br)cc2)coc2cc(OCCCCN3CCOCC3)ccc12` [WZY-1-113]: 62.7%.
Still for that read-out and setting: for `O=c1c(-c2ccc(Cl)cc2Cl)coc2cc(OCCN3CCNCC3)ccc12` [WZY-1-123] the value was 67.1%; for `O=c1c(-c2ccc(Cl)cc2Cl)coc2cc(OCCN3CCN(CCO)CC3)ccc12` [WZY-1-125], 43.1%.
Turning to `O=c1c(-c2ccccc2Cl)coc2cc(OCCN3CCN(CCO)CC3)ccc12` [WZY-1-129], the inhibition at 3 µM in data set [4] was found to be 13%.
The same measure, in the same setting: next, `O=c1c(-c2ccc(Br)cc2)coc2cc(OCCn3ccnc3)ccc12` [WZY-1-131]: 22%; `O=c1c(-c2ccc(Br)cc2)coc2cc(OCCCCn3ccnc3)ccc12` [WZY-1-139]: 58.7%.
Same read-out and setting: for `O=c1c(-c2ccc(Br)cc2)coc2cc(OCCCCn3cccn3)ccc12` [WZY-1-141] the value was 63.9%; for `O=c1c(-c2ccc(Br)cc2)coc2cc(OCCCCCCCCn3ccnc3)ccc12` [WZY-1-143], 61.2%.
Still for that read-out and setting: for `O=c1c(-c2ccc(Cl)cc2)coc2cc(OCCN3CCOCC3)ccc12` [WZY-1-149] the value was 51.4%.
Consider `O=c1c(-c2ccc(Br)cc2)coc2cc(OCCCCN3CCOCC3)ccc12` [WZY-1-155], for which the “HCT116 Cells Proliferation Inhibition %” value in data set [4] (3 μM) is reported as 65.3%.
Consider `CN(C)CCN(C)CCOc1ccc2c(=O)c(-c3ccc(Br)cc3)coc2c1` [WZY-1-193], for which, in data set [2], the inhibition at 0.3 µM is 57% and the inhibition at 1 µM came out at 87%. The same compound registered an inhibition at 1 µM in data set [4] of 26%.
As for `O=c1c(-c2ccc(F)c(F)c2)coc2cc(OCCN3CCNCC3)ccc12` [XDQ-1-9], in data set [4], the inhibition at 3 µM was 34% and the inhibition at 10 µM amounted to 94%.
In data set [4], `O=c1c(-c2ccc(F)c(F)c2)coc2cc(OCCN3CCN(CCO)CC3)ccc12` [XDQ-1-13] came in with an inhibition at 3 µM of 10% and an inhibition at 10 µM of 61%.
As for `O=c1c(-c2ccc(Cl)c(Cl)c2)coc2cc(OCCN3CCN(CCO)CC3)ccc12` [XDQ-1-19], in data set [2], the inhibition at 0.3 µM came to 60% and the inhibition at 1 µM amounted to 99%. Also, in data set [4], the inhibition at 3 µM was found to be 95% and the inhibition at 10 µM is 94%.
In the case of `O=c1c(-c2ccc(Cl)c(Cl)c2)coc2cc(OCCN3CCNCC3)ccc12` [XDQ-1-25], in data set [2], the inhibition at 0.3 µM turned out to be 72% and the inhibition at 1 µM worked out at 99%. In data set [4], this compound registered an inhibition at 3 µM of 93% and an inhibition at 10 µM of 92.5%.
